According to patent US12631620B2, “Methods of generating organoids for high throughput screening of drugs” (Yissum Research Development Company of the Hebrew …, priority 2019, dated 2026):
Several values for one entry are separate records, joined by “and”; a condition that tells them apart may be missing. Equal values may be shown once.

What was measured:
[1] = patients on therapy; cited from earlier work
HepG2/C3A organoids = test: Real-time oxygen uptake toxicity (TC50, time to onset, lowest exposure level) in differentiated HepG2/C3A organoids; assay type: cell-based, human; details: for TC50: oxygen uptake
Procedure: A suspension of HepG2/C3A cells and CPOx-50-RuP beads (Colibri Photonics, Germany) were suspended in 2.5 mg/ml rat tail collagen type I (Corning, USA) at a cell density of 7×10^5 cells/μl. A volume of 1.1 μl of the gel-imbedded mixture was injected into each microwell and left to form spontaneously until their metabolic activity stabilized around day 4.
Fifty-micrometer-diameter polystyrene microbeads were loaded with ruthenium-phenanthroline-based phosphorescence dye (CPOx-50-RuP). […] Oxygen acts as a quencher, leading to a decrease in decay time and signal intensity with increasing concentration. The present inventors chose to measure decay time, rather than signal intensity, as it is not sensitive to changes in probe concentration or excitation intensity over the course of the experiment. The signal was measured using the OPAL system (Colibri Photonics, Germany) that comprises of a control module, 532 nm LED excitation source, and a photomultiplier (PMT) detector mounted on the ocular of an IX81 Olympus microscope (Olympus, Japan). A filter cube with 531/40 (Ex), 555, 607/70 (Em) was inserted in the optical light path during measurements. To accurately measure decay time, the present inventors chose phase modulation in which sinusoidal amplitude-modulated light is shifted in phase due to oxygen quenching. To overcome the superposition of in-phase background fluorescence that alters the phase of the detected signal, the present inventors used a novel 53.5 and 31.3 kHz two-frequency phase modulation that allowed to screen out the interference [Schmalzlin E., et al., 2005. Biophysical journal, 89: 1339-1345; Papkovsky, D. B. et al., 2004. Methods in enzymology, 381, 715-735; Ast, C., et al., 2012. Sensors (Basel), 12: 7015-7032; Engelhard, S., et al., 2006. Analytical and bioanalytical chemistry, 384: 1107-1112; Prill, D. et al., 2016, Archives of toxicology, 90: 1181-1191]. Measurements were carried out by averaging five consecutive 4-s exposures. Measurements were taken every 15 minutes. Under similar conditions, 28 days of measurement of organoids was done with no apparent phototoxicity, signal drift, or relevant loss of signal intensity (Schmalzlin E., et al., 2005. Biophysical journal, 89: 1339-1345). Assessment of Cellular Toxicity and Time to Onset
Organoids were exposed to different concentrations of compounds dissolved in culture medium. Cell viability was determined by oxygen uptake following 24 hours of exposure unless otherwise noted. TC50 concentrations were determined using MATLAB by sigmoidal curve fitting (Wenner, M. M. et al., 2011, J Appl Physiol (1985), 111: 1703-1709; Prentice, R. L. et al., 1976, Biometrics, 32: 761-768). Time to onset was analyzed by MATLAB based on LPF and trend assessment.
To find the asymptotic concentration for which damage occurs only at infinite exposure time, the present inventors used a previously developed model for accumulative drug exposure (El-Kareh et al., 2000. Neoplasia, 2: 325-338; Currie, G. M. 2018. J Nucl Med Technol, DOI: 10.2967/jnmt.117.199588). The model is based on the steady-state dynamics of flux accumulation, using a linear first-order approximation of the cell membrane. The flux behavior is described by
where J(C) is the concentration dependent flux, Jmin is the minimal flux that will cause an effect, t is time of exposure and |τ is a drug-cell specific constant accounting reaction dynamics (Gowrishankar et al., 2003. Proceedings of the National Academy of Sciences of the United States of America, 100: 3203-3208; Kotnik T. et al., 2000. IEEE Trans Biomed Eng, 47: 1074-1081). In the present case, t is the Time to Onset (TTO) of damage creating a bi-asymptotic behavior. This adapted model is used to describe lowest exposure level (LEL) under first order, steady state assumptions, as
Real-time oxygen measurements were performed optically using on-chip lifetime-based luminescence quenching (LBLQ). […]

Cc1cn([C@H]2C=C[C@@H](CO)O2)c(=O)[nH]c1=O [Stavudine]
patients with elevated liver enzymes [1]: 30% | TC50 (HepG2/C3A organoids; at 24 hours): 4300 µM | TC50 (HepG2/C3A organoids; at 42 hours): 1700 µM and 1700 ± 400 µM | Time to onset (TTO) of response (HepG2/C3A organoids; dose-dependent range over concentrations tested): 10 to 29 h | lowest exposure level (LEL) (HepG2/C3A organoids; horizontal asymptote, onset of damage at infinite time, ± standard error of curve fit): 4 ± 1 µM
